Article PMC4275348 (Molecular microbiology, 2014)
Where a chain is given by its changes, count along the chain named.

Key:
[1] = target: WT LuxN (Vibrio campbellii, UniProt A7MRY4); details: XK006 carrying WT luxN
[2] = target: T1, LuxN^H210T (Vibrio campbellii, UniProt A7MRY4, H210T); assay: Bioluminescence of V. harveyi XK006 carrying luxN H210T; type: cell-based, Vibrio harveyi; details: 1 μM AHL
T1 sequence (A7MRY4 1-849 H210T): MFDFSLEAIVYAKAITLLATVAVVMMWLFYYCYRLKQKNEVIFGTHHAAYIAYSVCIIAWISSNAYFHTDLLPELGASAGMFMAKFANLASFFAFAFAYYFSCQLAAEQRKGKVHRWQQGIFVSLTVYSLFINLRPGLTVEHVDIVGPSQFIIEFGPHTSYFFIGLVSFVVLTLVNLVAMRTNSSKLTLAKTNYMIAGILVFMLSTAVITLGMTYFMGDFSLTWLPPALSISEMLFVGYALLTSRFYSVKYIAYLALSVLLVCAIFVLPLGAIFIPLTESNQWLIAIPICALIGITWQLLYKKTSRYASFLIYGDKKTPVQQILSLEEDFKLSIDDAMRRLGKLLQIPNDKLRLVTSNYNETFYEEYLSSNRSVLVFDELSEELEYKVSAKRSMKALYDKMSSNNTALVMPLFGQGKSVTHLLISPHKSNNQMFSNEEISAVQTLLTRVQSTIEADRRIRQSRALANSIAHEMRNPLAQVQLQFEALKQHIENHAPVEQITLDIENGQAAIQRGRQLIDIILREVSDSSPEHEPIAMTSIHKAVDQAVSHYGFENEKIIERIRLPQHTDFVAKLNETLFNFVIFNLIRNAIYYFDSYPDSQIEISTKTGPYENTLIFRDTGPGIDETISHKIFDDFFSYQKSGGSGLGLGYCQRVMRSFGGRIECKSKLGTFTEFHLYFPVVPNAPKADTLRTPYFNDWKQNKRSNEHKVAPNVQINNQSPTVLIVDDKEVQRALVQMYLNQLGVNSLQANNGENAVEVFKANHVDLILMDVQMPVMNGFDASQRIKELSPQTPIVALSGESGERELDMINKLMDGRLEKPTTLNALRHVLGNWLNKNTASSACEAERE

[3] = tested on: Kin^off LuxN mutants; assay: Bioluminescence of V. harveyi XK847 harboring Kin^off luxN alleles; type: cell-based, Vibrio harveyi
[4] = target: T2, LuxN (Vibrio campbellii, UniProt A7MRY4); details: 1 μM AHL; V. harveyi TL25
[5] = target: T3, LuxN^H210Q (Vibrio campbellii, UniProt A7MRY4, H210Q); assay: Bioluminescence of V. harveyi XK006 carrying luxN H210Q; type: cell-based, Vibrio harveyi; details: 1 μM AHL
T3 sequence (A7MRY4 1-849 H210Q): T1 sequence (A7MRY4 1-849 H210T) with T210Q

[6] = target: T2, LuxN; type: cell-based, Vibrio harveyi; details: 1 μM AHL with 20 nM AI-1; V. harveyi TL25
[7] = target: luxN^L166A/H210N (Vibrio campbellii, UniProt A7MRY4, H210N/L166A); details: AHLs added at 1 μM
[8] = tested on: WT AinR; assay: Bioluminescence of V. harveyi XK006 harboring WT V. fischeri ainR; type: cell-based, Vibrio fischeri; details: AHLs added at 1 μM
[9] = tested on: AinR^Q204H; assay: Bioluminescence of V. harveyi XK006 harboring ainR Q204H; type: cell-based, Vibrio fischeri
[10] = target: LuxN^L166A (Vibrio campbellii, UniProt A7MRY4, L166A)
[11] = target: LuxN^L166A mutant with Ser209 (Vibrio campbellii, UniProt A7MRY4, I209S/L166A); details: AHLs added at 1 μM
[12] = target: T4, luxN^T159I/Y193K (Vibrio campbellii, UniProt A7MRY4, N193K/T159I); assay: Bioluminescence of V. harveyi XK006 carrying luxN T159I/Y193K; type: cell-based, Vibrio harveyi; details: 10 μM 3O-C10 HSL
T4 sequence (A7MRY4 1-849 T159I/N193K): T1 sequence (A7MRY4 1-849 H210T) with T159I, N193K, T210H

[13] = target: luxN^S230P (Vibrio campbellii, UniProt A7MRY4, S230P); details: 10 μM 3O-C10 HSL
[14] = target: T5, luxN^S184I/S230P (Vibrio campbellii, UniProt A7MRY4, S184I/S230P); assay: Bioluminescence of V. harveyi XK006 carrying luxN S184I/S230P; type: cell-based, Vibrio harveyi; details: 10 μM 3O-C10 HSL
T5 sequence (A7MRY4 1-849 S184I/S230P): T1 sequence (A7MRY4 1-849 H210T) with S184I, T210H, S230P

C[C@@H](O)CC(=O)N[C@H]1CCOC1=O [(S)-3OH-C4 HSL]
response (dose-dependent light production) [1]: did not respond

CCCC(=O)N[C@H]1CCOC1=O [C4 HSL]
induction of light production [2]: 100 fold
light production / detection [3]: also detected
induction of light production [4]: did not induce light production
induction of light production [5]: 30 fold

CCCCCC(O)CC(=O)N[C@H]1CCOC1=O (some centres unmarked) [3OH-C8 HSL]
reduction in light production [6]: five-fold
light production [7]: Significantly less light
light production [8]: light production was induced
detection (light production) [9]: lost the ability to detect
detection (light production) [10]: robustly detects
ligand detection (light production) [11]: restricted to 3OH-C8 HSL

CCCCCCCC(=O)CC(=O)N[C@H]1CCOC1=O [3O-C10 HSL]
increase in light production [12]: 20 fold
induction of light production [13]: 20 fold
increase in light production [14]: 10 fold
